Results as given in patent US11564924B2, “Pharmaceutical composition formed by combining pyridoxamine compound and thiamine compound” (RENASCIENCE CO., LTD., priority 2014, dated 2023).

Experiments:
[1] = system: Wernicke's encephalopathy; experiment: Wernicke's encephalopathy findings (MRI of the brain, symptoms) during drug administration; type: in vivo, human
Method: Immediately after the patient was suspected of having Wernicke's encephalopathy, oral administration of a thiamine compound (fursultiamine (Takeda Pharmaceutical Company Limited)) at a dose of 75 mg/day was initiated (administered once a day) and continued every day.
Immediately after the patient was suspected of having Wernicke's encephalopathy, intravenous administration of a thiamine compound (fursultiamine (Takeda Pharmaceutical Company Limited)) (300 mg/day) was performed, and then (from 10 weeks after the start of drug administration), oral administration of the thiamine compound at a dose of 100 to 50 mg/day was continued.

[2] = system: vitamin B1; experiment: Whole blood vitamin B1 amount in schizophrenia patients during drug administration (LC/MS/MS); type: in vivo, human
Method: Measurement of the amount of vitamin B1 in whole blood (blood collection with heparin) was outsourced to SRL Inc., and the measurement was performed using LC/MS/MS.

[3] = system: vitamin B1 in human whole blood; experiment: In vitro effect on vitamin B1 concentration in human whole blood; settings: human whole blood, 5, 50, 500 μg/mL, 37° C.
Excerpt: In addition, as described in Experiment Example 1 and Experiment Example 2, administration of a pyridoxamine compound increases not only the serum pyridoxamine concentration, but also the serum pyridoxal concentration, and thus, pyridoxamine and pyridoxal were both used as test substances for the investigation.
Blood was collected from a human using EDTA⋅2K as an anticoagulant. In addition, pyridoxamine dihydrochloride (Sigma-Aldrich Japan) was used as pyridoxamine, and pyridoxal hydrochloride (Nacalai Tesque, Inc.) was used as pyridoxal. They were dissolved at 0.5, 5, and 50 mg/mL in physiological saline to prepare test solutions. 10 μL of each test solution was individually added per mL of the whole blood collected above (test samples). The final concentrations of each test substance in the test samples were 5, 50, 500 μg/mL. Further, a vehicle was prepared by adding 10 μl of physiological saline to 1 ml of the whole blood. The vehicle and the test samples were incubated at 37° C. for 1 hour or 16 hours and then immediately frozen. Measurement of the vitamin B1 concentrations in the whole blood before the start of the incubation to which neither the physiological saline nor any test solution was added (baseline: indicated by “BL” in FIG. 4), and in the vehicle and in each test sample after the incubation, was outsourced to SRL Inc., and the measurement was performed using LC/MS/MS.

SMILES: CC(=C(CCO)SSCC1CCCO1)N(C=O)Cc1cnc(C)nc1N (stereo in doubt) [fursultiamine]
- symptom of Wernicke's encephalopathy ([1]; patient ID No. 3, 14 weeks after the start of drug administration (8 weeks after the start of the thiamine compound, 75 mg/day oral)): disappeared
- symptom of Wernicke's encephalopathy ([1]; patient ID No. 6, 11 weeks after the start of drug administration (3 weeks after the start of the thiamine compound)): disappeared
- whole blood vitamin B1 amount ([2]; patient ID No. 3, 12 weeks after the start of drug administration (6 weeks after start of fursultiamine 75 mg/day oral), pyridoxamine compound continued): 135 ng/mL
- whole blood vitamin B1 amount ([2]; patient ID No. 6, 11 weeks after the start of drug administration (3 weeks after start of thiamine compound: 300 mg/day intravenous, then 100 to 50 mg/day oral)): 150 ng/mL

SMILES: Cc1ncc(CO)c(C=O)c1O.Cl [pyridoxal hydrochloride]
- change in whole blood vitamin B1 concentration ([3]; 1 hour incubation): decrease in the vitamin B1 concentration in a manner dependent on the concentration of pyridoxal hydrochloride
- change in whole blood vitamin B1 concentration ([3]; 16 hours incubation): decrease in the vitamin B1 concentration in a manner dependent on the concentration of pyridoxal hydrochloride
